# Tests used:
# [1] = test system: patients with Alzheimer's disease; assay: Revised Hasegawa dementia scale (HDS-R) scoring of patients with Alzheimer's disease; type: in vivo, human
# Method: Both groups take medicine for 12 continuous weeks. 2 ml of cerebrospinal fluid is collected by lumbar puncture, and is stored at −80° C., the β-amyloid protein (Aβ) content is determined by using enzyme-linked immunosorbent assay (ELISA). A revised Hasegawa dementia scale (HDS-R) is used to score, and the scores before and after treatment are compared, increasing in scores means validness, and unchanging or decreasing in scores means invalidness. The enumeration data adopts χ^2 test, the comparison of measurement data adopts t-test, all data is processed by adopting SPSS12.0 statistical software.
# Analysis on the clinical therapeutic effect of the two groups.
# [2] = test system: intracerebral cholinergic nerve system of rat model with Alzheimer's disease; assay: AChE positive nerve fiber density of cortex and hippocampal formation, rat model with Alzheimer's disease (D-galactose + IBO); type: in vivo, Wistar rats; details: AD model rats, Huperzine A 0.3 mg/kg/d, 6 weeks
# From the text: 60 Wistar rats each of which having the body weight of 300-500 g are randomly divided into 6 groups, with 10 in each group, and the groups are named a preliminary elder normal control group, a preliminary elder AD model group, a positive medicine Huperzine A group, and high-dose, medium-dose and low-dose of Ginsenoside Rg3 topical preparation groups according to different treatment methods, respectively. The rats are bred in separate cages, each holding 4-5 rats, with natural lighting and random drinking and feeding provided. Physiological saline is injected in the abdominal cavity and grain of each rat in the preliminary elder normal control group; Galactose intraperitoneal injection and IBO intracerebral injection are given to all rats in the preliminary elder AD model group, the positive medicine Huperzine A group, and the high-dose, medium-dose and low-dose Ginsenoside Rg3 topical preparation groups; while the rats in the Huperzine A group and the high-dose, medium-dose and low-dose of Ginsenoside Rg3 topical preparation groups are subjected to D-galactose injection for modeling, rat of each group is given Huperzine A 0.3 mg/kg/d and Ginsenoside Rg3 10, 5, 2.5 mg/kg/d respectively. Ginsenoside Rg3 is applied to both sides of the nose of each rat of Ginsenoside Rg3 topical preparation groups. All the rats are subjected to the medicines continuously for 6 weeks and then intracerebral bilateral Meynert nuclei injection is carried out. Reference is made to a rat cerebral stereotaxic atlas for Meynert nuclei localization, and localization coordinates are AP-0.8 mm, Late 2.6 mm and DV 8.2 mm During intracerebral injection, a rat is anesthetized with 3% pentobarbital sodium (30 mg/kg) and then immobilized to a cerebral stereotaxic apparatus, physiological saline dissolved IBO (injection 1 μl for each side containing 5 μg of IBO) or 1 μl normal saline is injected slowly into a Meynert nucleus, each side takes injection for 5 minutes, and needle retaining for 10 minutes, wherein all the rats are subjected to cerebral perfusion with 4% paraformaldehyde after modeling and are then immobilized for 24 hours, and the brain is put in a sucrose phosphate buffer until brain tissue blocks sink, the blocks are frozen in a incubator and serially sectioned to […] in thickness. The sections are subjected to acetycholinesterase (AChE) histochemical staining by methods recommended by Hedreen, et al. Observation is given to the frontal lobe, the parietal lobe, the occipital lobe and the entorhinal cortex (layer II) as well as parts in a hippocampal CA1 region of the hippocampal formation such as a stratum oriens, a stratum radiatum, a stratum lacunosum-moleculare and a stratum moleculare of dentate gyrus for observing their AChE positive nerve fiber densities, and the AChE positive nerve fiber densities are counted with a number of intersections of positive fibers with a standard grid by using a micrometer used for a microscope.
# A significance level a is equal to 0.05.
# rat blood-brain barrier = details: rats drenched with borneolum syntheticum paraffin oil solution; cited from earlier work
# [3] = of 18 patients per group, 12 weeks
smiles,measurement,setting,value
"COc1cc2c(cc1OC)C(=O)C(CC1CCN(Cc3ccccc3)CC1)C2 (centres unmarked) [Donepezil, donepezil, reference compound]",effective rate (patients increased in HDS-R scores),"[1]; 18 AD patients per group, Rg3 oral liquid 10 mg/d or donepezil 5 mg/d, 12 weeks",72.2%
same,"Scores of clinical symptom (HDS-R), post treatment","[1]; AD inpatients, n = 18, Rg3 oral liquid 10 mg/d or donepezil 5 mg/d orally, 12 weeks",17.3 ± 9.6
same,"Scores of clinical symptom (HDS-R), before treatment","[1]; AD inpatients, n = 18 per group, baseline",13.5 ± 4.2^Δ
same,number of patients constant in scores,[1]; [3],3
same,number of patients decreased in scores,[1]; [3],2
same,number of patients increased in scores of clinical symptom,[1]; [3],13
"C/C=C1\[C@H]2C=C(C)C[C@]1(N)c1ccc(=O)[nH]c1C2 [Huperzine, Huperzine A, reference compound]",N Entorhinal cortex AchE positive nerve fiber density,[2],132.4 ± 19.2^# 10^2 · mm^−2
same,N Frontal lobe AchE positive nerve fiber density,[2],122.1 ± 16.1^## 10^2 · mm^−2
same,N Occipital lobe AchE positive nerve fiber density,[2],131.6 ± 9.0^Δ 10^2 · mm^−2
same,Parietal lobe AchE positive nerve fiber density,[2],108.7 ± 15.8^##Δ 10^2 · mm^−2
same,N Stratum lacunosum-moleculare AchE positive nerve fiber density,[2]; hippocampal formation,83.3 ± 9.6 10^2 · mm^−2
same,N Stratum moleculare of dentate gyrus AchE positive nerve fiber density,[2]; hippocampal formation,120.0 ± 10.7^# 10^2 · mm^−2
same,N Stratum oriens AchE positive nerve fiber density,[2]; hippocampal formation,138.7 ± 20.1 10^2 · mm^−2
same,N Stratum radiatum AchE positive nerve fiber density,[2]; hippocampal formation,121.1 ± 15.2 10^2 · mm^−2
CC1(C)C2CCC1(C)C(O)C2 (centres unmarked) [borneolum syntheticum],time after drench at which tight junction changes start,rat blood-brain barrier,4 h
same,time at which tight junction changes reach peak,rat blood-brain barrier,8 h
same,time at which tight junction returns to normal,rat blood-brain barrier,48 h

# Source: patent US10238676B2, “Application of ginsenoside RG3 in preparing medicine for preventing and/or treating dementia, and medicine for treating dementia” (priority 2013, dated 2019)
